These results are taken from patent US4952592A, “1,4-dihydro 2,6-dimethyl 4-(2,3-methylenedioxyphenyl) 3-alkoxy carbonyl 5-[2-(substituted amino)ethoxy]carbonyl pyridine” (Instituto de Investigacion Y Desarrollo Quimicobiologico …, priority 1987, dated 1990).

A word on the IC50: it is the midpoint of a concentration-inhibition curve. Lower therefore signals greater potency. As a reminder, the LD50 is the dose expected to kill half of the subjects tested.

For one data set, the system named is rat aorta. The experiment in a line: Inhibitory effects with respect to contractions of the rat aorta induced by 80 mM KCl. It counts as cell-based, WISTAR rats. The following applies: isolated rat aorta. The method, then:
The compounds of the present invention were tested for their calcium-inhibitory properties by standard methods applicable "in vitro".
Inhibitory effects with respect to contractions of the rat aorta induced by 80 mM KCl.
The aorta of WISTAR rats (220-250 g), sacrificed by decapitation, are removed and placed in a 20-ml organ bath at a temperature of 34° C., containing a KREBS solution composed as follows (in mmol per liter): NaCl, 137; KCl, 2.7; MgCl2.6H2 O, 1.04; CaCl2.2H2 O, 0.8; Na2 HPO4.H2 O, 0.42; NaHCO3, 11.9; glucose, 5. This solution is oxygenated with a mixture of 95% of O2 and 5% of CO2 (Furchgott and Bhadakron, 1956).
After a 45-minute stabilization period under a tension of 2 g, the maximal contractions of the artery are induced by adding KCl to the bath until a final concentration of 80 mmol/liter is attained. After the contractions have stabilized, the compounds of the invention, or OXODIPINE as control substance, are added, leaving a period of at least 10 minutes for stabilizing the relaxation.
The compounds of the present invention are dissolved in ethanol to give concentrated solutions containing approximately 1 mg/ml, from which the dilutions used above, from 10^-13 to 10^-7 M, are obtained by adding saline solution. The 50% inhibitory concentrations (IC50) are determined by analysis of the straight regression line.

For data set [1] the following is noted: 3 mg/kg/min and above, in words; cited from earlier work.
Data set [2] deals with conscious renal hypertensive rats. Description: antihypertensive activity on conscious renal hypertensive rats (systolic blood pressure, tail sleeve). The following applies: i.p.; for decrease of the original high pressure: 1 mg/kg. The class given is in vivo, rat. The method, then:
(2)1- antihypertensive activity:
A few compounds according to the invention were tested for their antihypertensive activity on conscious renal hypertensive rats. The systolic blood pressure was measured on the tail of unanaesthetized rats by means of an inflatable sleeve and an L.H.5 000 digital pressure gauge (Letica Instruments, Barcelona, Spain). The measurements were carried out before the i.p. administration of the test substance, and then 30 minutes, 1, 2, 4 and 5 hours after administration. The animals were maintained in preheated plastic cylinders during the measurements. Rats having a blood pressure of less than 160 mmHg were eliminated from the experiment.
Each compound was administered in 5% strength suspension (CMC) by i.p. injection.

A short description of a further data set: in vivo. As to conditions: mouse, ip, mice, i.p., mortality in 7 days, read-out: intraperitoneal LD50. As to the method:
The acute toxicity of a few compounds of the invention was determined in mice according to the method of […] and WILCOXON. Groups of 5 mice weighing 20-25 g were treated with increasing i.p. doses of the test compounds. The mortality was recorded in the 7 days following the treatment, and the LD50 calculated on this basis.

Another data set relates to coronary vessels. The experiment in a line: Vascular activity in anaesthetized dogs: regional blood flows and haemodynamics with coronary artery occlusion. The class given is in vivo. As to conditions: i.v. The method, then: The beneficial effects on the oxygen supply/consumption balance may be accompanied by a modification of the blood distribution within the wall, which will be better irrigated, and by an increase in the blood flow in the collateral vessels during an acute occlusion of the coronary artery. The effects of the compound of Example 11, at doses of 10 and less than 10 μg/kg i.v., were explored in anaesthetized dogs in order to determine: the regional (endocardium, epicardium) myocardial blood flows in the ischaemic and non-ischaemic zones, the ratio between the endo- and epicardial flows and the ratio of the flows in the ischaemic/nonischaemic zone, the regional blood flows in other areas (spleen, pancreas, kidney, liver, stomach, intestines, muscle, skin) in order to define the selectivity of action of the compound. The studies were carried out on 6 adult dogs, according to the technique of […] and […]. Pharmacol. 1985 - 16 - 59 - 74 and J. Pharmacol. Exp. Ther. 1982, 221, 740-747). In addition, the haemodynamic parameters (heart rate, arterial blood pressure, left ventricular pressure, cardiac flow, total peripheral resistance, systolic ejection volume, cardiac work, contractility index) were monitored at regular times, before and after 3 successive short periods (12 minutes) of total occlusion of the coronary artery, the injection of radioactive microspheres enabling the regional flows to be evaluated. After the first period of ischaemia, the parameters were allowed to return to normal before the test compound was injected, the second occlusion was then performed and this procedure was repeated, the reversibility of the parameters being complete approximately 45 minutes after each occlusion. The test compound was administered in aqueous-alcoholic solution (0.1 mg/ml) on the basis of 0.1 ml/kg i.v.

For the molecule `COC(=O)C1=C(C)NC(C)=C(C(=O)OCCN(C)Cc2cccs2)C1c1cccc2c1OCO2` (centres unmarked) [Example 9, 3-Methyl 5-{2-[N-methyl-N-(2-thienylmethyl)amino]ethyl}1,4-dihydro-2,6-dimethyl-4-(2,3-methylenedioxyphenyl)-3,5-pyridinedicarboxylate], in the data set with rat aorta, the IC50 stood at 13 nM.
Consider `COC(=O)C1=C(C)NC(C)=C(C(=O)OCCN(C)Cc2ccc(F)cc2)C1c1cccc2c1OCO2` (centres unmarked) [Example 7, 3-Methyl 5-{2-[N-methyl-N-(4-fluorobenzyl)amino]ethyl}1,4-dihydro-2,6-dimethyl-4-(2,3-methylenedioxyphenyl)-3,5-pyridinedicarboxylate], for which half-maximal inhibition with rat aorta (IC50) was put at 2.75 nM.
Still for that read-out and setting: the same measure for `CCOC(=O)C1=C(C)NC(C)=C(C(=O)OCCN(C)Cc2cccs2)C1c1cccc2c1OCO2` (centres unmarked) [Example 10, 3-Ethyl 5-{2-[N-methyl-N-(2-thienylmethyl)amino]ethyl}1,4-dihydro-2,6-dimethyl-4-(2,3-methylenedioxyphenyl)-3,5-pyridinedicarboxylate]: 0.904 nM.
`COC(=O)C1=C(C)NC(C)=C(C(=O)OCCN(C)Cc2ccccn2)C1c1cccc2c1OCO2` (centres unmarked) [Example 4, 3 -Methyl 5-{2-[N-methyl-N-(2-picolyl)amino]ethyl}1,4-dihydro-2,6-dimethyl-4-(2,3-methylenedioxyphenyl)-3,5-pyridinedicarboxylate]: in the data set with rat aorta, the concentration for half-maximal inhibition (IC50) was 81.1 nM.
`COC(=O)C1=C(C)NC(C)=C(C(=O)OC)C1c1ccccc1[N+](=O)[O-]` [NIFEDIPINE]: in data set [1], the heart rate result was “increased”, the myocardial regional flows result is given as “decreases the myocardial regional flows” and the perfusion pressure entry is recorded as “strongly reduced”.
In the case of `CC1=C(C(=O)OCCN(C)Cc2cccs2)C(c2cccc3c2OCO3)C(C(=O)OC(C)C)=C(C)N1` (centres unmarked) [Example 12, 3-Isopropyl 5-{2-[N-methyl-N-(2-thienylmethyl)amino]ethyl}1,4-dihydro-2,6-dimethyl-4-(2,3-methylenedioxyphenyl)-3,5-pyridinedicarboxylate], the IC50 in the data set on rat aorta is 22.5 nM.
With `CNCCOC(=O)C1=C(C)NC(C)=C(C(=O)OC)C1c1cccc2c1OCO2` (centres unmarked) [Example 1, 3-Methyl 5-[2-(N-methylamino)ethyl]1,4-dihydro-2,6-dimethyl-4-(2,3-methylenedioxyphenyl)-3,5-pyridinedicarboxylate], the IC50 with rat aorta came to 1920 nM.
In turn, `CCOC(=O)C1=C(C)NC(C)=C(C(=O)OCCN(C)Cc2ccc(F)cc2)C1c1cccc2c1OCO2` (centres unmarked) [Example 8, 3-Ethyl 5-{2-[N-methyl-N-(4-fluorobenzyl)amino]ethyl}1,4-dihydro-2,6-dimethyl-4-(2,3-methylenedioxyphenyl)-3,5-pyridinedicarboxylate] came in with an IC50 in the data set with rat aorta of 0.04 nM. In data set [2], the “decrease of the original high pressure” value was determined as 23%. Moreover, the LD50 at 168 h in “in vivo” fell in the range of 70 to 80 mg/kg.
In the data set on rat aorta, `CCOC(=O)C1=C(C)NC(C)=C(C(=O)OC)C1c1cccc2c1OCO2` (centres unmarked) [OXODIPINE, reference compound] had an IC50 of 3.1 nM.
Still for that read-out and setting: the result for `COC(=O)C1=C(C)NC(C)=C(C(=O)OCCN(C)Cc2ccncc2)C1c1cccc2c1OCO2` (centres unmarked) [Example 5, 3-Methyl 5{2-[N-methyl-N-(4-picolyl)amino]ethyl}1,4-dihydro-2,6-dimethyl-4-(2,3-methylenedioxyphenyl)-3,5-pyridinedicarboxylate] reads 245 nM.
With `CC1=C(C(=O)OCCN(C)Cc2ccc(F)cc2)C(c2cccc3c2OCO3)C(C(=O)OC(C)C)=C(C)N1` (centres unmarked) [Example 11, 3-Isopropyl 5-{2-[N-methyl-N-(4-fluorobenzyl)amino]ethyl}1,4-dihydro-2,6-dimethyl-4-(2,3-methylenedioxyphenyl)3,5-pyridinedicarboxylate], in data set [2], the “decrease of the original high pressure” value worked out at 33% and the “duration of antihypertensive effects” value was “more than 6 hours”. In “in vivo”, the LD50 at 168 h lay in the range of 30 to 40 mg/kg. In addition, in the data set with coronary vessels, the “arterial blood pressure change” value is on record as -13%, the cardiac flow change result was “+9%”, the heart rate change is reported as -9% and the “systolic ejection volume change” value is “+18%”. Moreover, the “total peripheral resistance reduction” value in the data set with coronary vessels stood at 20%. This molecule returned an epicardial flow increase in the data set on coronary vessels (ischaemic zones) of at least 20%. In addition, the endo/epi ratio change in the data set on coronary vessels (ischaemic zones, p<0.05) was -21%. Further, the transmural flow increase with coronary vessels (non-ischaemic zones) is 42%. In addition, in the data set on coronary vessels (non-ischaemic zones, p<0.001), the endo/epi ratio change is given as -22% and the epicardial flow change entry is reported as “+62%”. In the data set on coronary vessels (non-ischaemic zones, p<0.05), the “coronary vascular resistance change” value was -38% and the endocardial flow change entry is reported as “+26%”.
`COC(=O)C1=C(C)NC(C)=C(C(=O)OCCN(C)C=O)C1c1cccc2c1OCO2` (centres unmarked) [Example 2, 3-Methyl 5-[2-(N-formyl-N-methylamino)ethyl]1,4-dihydro-2,6-dimethyl-4-(2,3-methylenedioxyphenyl)-3,5-pyridinedicarboxylate]: the IC50 in the data set on rat aorta came out at 558 nM.
The same measure, in the same setting: the same measure for `COC(=O)C1=C(C)NC(C)=C(C(=O)OCCN(C)Cc2cccnc2)C1c1cccc2c1OCO2` (centres unmarked) [Example 6, 3-Methyl 5-{2-[N-methyl-N-(3-picolyl)amino]ethyl}1,4-dihydro-2,6-dimethyl-4-(2,3-methylenedioxyphenyl)-3,5-pyridinedicarboxylate]: 9 nM; for `COC(=O)C1=C(C)NC(C)=C(C(=O)OCCN(C=O)Cc2ccccc2)C1c1cccc2c1OCO2` (centres unmarked) [Example 3, 3-Methyl 5-[2-(N-formyl-N-benzylamino)ethyl]1,4-dihydro-2,6-dimethyl-4-(2,3-methylenedioxyphenyl)-3,5-pyridinedicarboxylate]: 52.8 nM.
